{"source": "patent US5508174A", "about": "“Method and micro roller bottle for in vitro exposure of cells to volatile chemicals” (The United States of America as represented by the …, priority 1993, dated 1996)", "test_system": "Primary hepatocytes", "test": "in vitro exposure of primary hepatocytes to volatile HCFCs, enzyme leakage (LDH and AST)", "type": "cell-based", "details": "10,000, 100,000 and 500,000 ppm, 24 hours", "excerpt": "Any adherent cell line or adherent primary cell type can be used in this system. Adherent cell lines may attach to glass walls, i.e., the inner surface of a glass body 10. When cells reach confluency, exposure can bc initiated. […] This can be accomplished by attaching primary cells to a sterile strip of inert mesh 38, e.g., nylon mesh, precoated with an attachment factor such as collagen. The mesh is carefully rolled and placed into body 10 through one of the openings 14 or 16. After the mesh is unrolled within body 10, the openings 14 and 1.6 are sealed using the septa or the valve 22 previously described.\nThe cells to be tested are washed and isolated using known procedures. The washed isolated cells are resuspended at a suitable cell density, e.g., about 10^6 to 10^7 /ml, in a suitable culture medium, e.g., Williams E or Leibovitz's-15. The culture medium may be supplemented with a suitable media supplement, e.g., fetal calf serum, dexamethasone, etc. The suspended cells are distributed over the mesh or over the inner surface of device 10. The cells are allowed to attach for a suitable period. If the mesh is used, it is rolled into a narrow tube, inserted into device 10 and allowed to unroll. Culture medium is added to the device 10 to a desired quantity. Scaling means 18 and 20 are inserted into openings 14 and 16. […]\nA syringe needle is inserted through one of the sealing means 18 or 20 to provide egress for excess atmosphere within device 10. […] A sample of the atmosphere within device 10 is taken from each device prepared for testing and analyzed by gas-chromatography (GC) to determine the actual concentration of the volatile compound in the device.\nThe thus-prepared test device is placed on a roller apparatus in an incubator at a suitable temperature. […] At the termination exposure, a second sample of the atmosphere should be taken and analyzed by GC to ensure that the volatile compound is present at a concentration of at least about 95% of that measured initially. […]"}
{"smiles": "FC(F)(F)C(Cl)Cl", "note": "[HCFC-123, 2,2-dichloro-1,1,1-trifluoroethane]", "values": [{"measurement": "relative rank ordering of toxicity, based on lactate dehydrogenase (LDH) and S-amino-transferase (AST) enzyme leakages", "value": "HCFC-123>HCFC-123/142b>HCFC-124>HCFC-142b"}]}
{"smiles": "FC(Cl)C(F)(F)F", "note": "(stereo not drawn) [HCFC-124, 1-chloro-1,2,2,2-trifiuoroethane]", "values": [{"measurement": "relative rank ordering of toxicity, based on lactate dehydrogenase (LDH) and S-amino-transferase (AST) enzyme leakages", "value": "HCFC-123>HCFC-123/142b>HCFC-124>HCFC-142b"}]}
{"smiles": "CC(F)(F)Cl", "note": "[HCFC-142b, 1-chloro-1,1-difluoroethane]", "values": [{"measurement": "relative rank ordering of toxicity, based on lactate dehydrogenase (LDH) and S-amino-transferase (AST) enzyme leakages", "value": "HCFC-123>HCFC-123/142b>HCFC-124>HCFC-142b"}]}
